The text below walks through data of patent publication US10509036B2, “Methods of selecting and isolating cancer stem cells” (The Regents of the University of California, priority 2014, dated 2019).

For the experiment, the system named is neuroblastoma cells (low NBDG and high NBDG). As to the kind of experiment: MTS assay (CellTiter 96 AQueous cell proliferation assay), low NBDG versus high NBDG neuroblastoma cells. The experiment is classed as cell-based, human. For orientation: Formazan colour is commonly taken as a measure of viable cells.

Molecules are shown by their SMILES.

Regarding `COc1cccc2c1C(=O)c1c(O)c3c(c(O)c1C2=O)C[C@@](O)(C(=O)CO)C[C@@H]3O[C@H]1C[C@H](N)[C@H](O)[C@H](C)O1` [doxorubicin], the “resistance of low NBDG cells to the chemotherapy drug compared with high NBDG cells (MTS assay)” value was “more resistant”. For `CC[C@]1(O)C[C@H]2CN(CCc3c([nH]c4ccccc34)[C@@](C(=O)OC)(c3cc4c(cc3OC)N(C=O)[C@H]3[C@@](O)(C(=O)OC)[C@H](OC(C)=O)[C@]5(CC)C=CCN6CC[C@]43[C@@H]65)C2)C1` [vincristine] the value was “more resistant”.
